Columns and labels:
S. aureus = conditions: 4 ml of 1×10^5 CFU/ml S. aureus, 24 hours
Protocol: A gentamicin-loaded chitosan-coated wire was placed in one tube (loaded wire, LW). 0.25 mg gentamicin was added to the second tube (antibiotic control, AC). The third tube contained bacteria only and served as growth control (GC). The tubes were incubated for 24 hours, and the absorbance of the solutions was measured with a spectrophotometer in each tube.

S. aureus Xen36 = experiment: Minimal inhibitory concentration by broth dilution method; type: cell-based, Staphylococcus aureus; conditions: against S. aureus Xen36, broth dilution
Protocol: FIGS. 17-20 show tests of the titanium rod of FIG. 3 against Staphylococcus aureus by agar dilution and liquid culture methods. To determine the antimicrobial activity of the loaded wires, S. aureus (Xen36, derived from ATCC 49525) bacteria were cultured overnight at 37° C. in Luria-Bertani medium. The minimal inhibitory concentration of gentamicin was determined by the broth dilution method. In the agar diffusion test, 100 μl of 1×10^6 colony forming units/ml S. aureus solution was inoculated on agar plates and dried. […] The inhibition zones (IZ) 1708, 1710 around the components were measured following 24 hours incubation at 37° C.
In the agar diffusion assay, an elliptical shaped IZ 1708 formed around the loaded wire 1702 (35 mm shorter and 45 mm longer axis).

[1] = Gentamicin release from titanium nanotubes, fractional volume sampling; type: physicochemical
Protocol: FIG. 13 illustrates a line graph showing the amount of gentamicin 2300 released from a titanium surface per hour 2400 after a two-step EPD process, as described above. […] Fractional volume sampling was carried out for 3 days. FIG. 15 illustrates the gentamicin concentration in the release solution, and FIG. 16 represents the cumulative release of gentamicin. An initial burst release was observed of around 78% in the first 10 minutes, then gentamicin was released at a slower rate up to 3 days.

Q: For gentamicin, which “bacterial density (absorbance) compared to growth control” value (S. aureus) is on record?
A: significantly decreased bacterial density

Q: What about the MIC (S. aureus Xen36) of the same substance?
A: 3.6 µg/mL

Q: And the “duration of slower release of gentamicin” value ([1]; after the initial burst)?
A: up to 3 days

Q: And the “drug concentration in release solution relative to MIC” value ([1]; entire period tested (3 days))?
A: stayed above the determined minimum inhibitory concentration (MIC)

Q: And the “initial burst release of gentamicin” value ([1]; first 10 minutes, titanium nanotube surface after two-step EPD with gentamicin and chitosan)?
A: around 78%

Q: And the “cumulative amount of gentamicin detected” value ([1]; release over 3 days, titanium nanotube surface after two-step EPD)?
A: 400 to 550 µg

— US20250269091A1, “UTILIZATION OF ELECTROPHORETIC DEPOSITION TO COAT MEDICAL IMPLANTS WITH THERAPEUTIC AGENTS IN A STERILE CLINICAL SETTING” (Rush University Medical Center, priority 2022, published 2025)
